Several values for one entry are separate records, joined by “and”; a condition that tells them apart may be missing. Equal values may be shown once.
What was measured:
[1] = type: in vivo, human
Method: (§1) Treatment consisted of a series of 28-day cycles, wherein the last day of one cycle (e.g., day 28, cycle 1) was immediately followed by the first day of the next cycle (e.g., day 1, cycle 2). In each 28-day treatment cycle, patients were dosed at days 1, 8, and 15 (three weeks of medication followed by one week of rest) as follows. First, nab-paclitaxel at 125 mg/m^2 was administered as an intravenous infusion over 30 minutes. […] Nab-paclitaxel and gemcitabine therapy was given as described in the prescribing information for Abraxane® and Gemzar®. See also, Von Hoff et al., 2011, J. Clinical Oncology 29:1-7).
(§2) As a substantially non-anticoagulant heparinoid, ODSH can be administered at a dose that is greater than the fully anticoagulant dose of unfractionated heparin, without concern for anticoagulant effect, as shown in the Results below.

[2] = tested on: Human ovarian cancer cell line A2780; assay: A2780 human ovarian cancer xenograft model: tumor weight; type: in vivo, athymic female mice; design: key to Mouse status printed in place of tumor weight: FD = Found Dead; TS = Terminal Sacrifice; settings: for Tumor weight, individual mice: listed as PGX ODSH; for Mouse status printed in place of tumor weight: Groups 2 and 3
Method: ODSH (50 mg/mL stock concentration) was made by Pyramid Laboratories, Inc. and stored at room temperature until use. As described further below, ODSH was administered either intravenously (IV), at a dose of 48 mg/kg and volume of 10 mL/kg, or subcutaneously (SC) at a dose of 24 mg/kg and volume of 5 ml/kg. Carboplatin obtained from a clinical supplier was stored at 4° C. until use. Carboplatin was administered by intraperitoneal injection (IP) at a dose of 80 mg/kg and volume of 10 mL/kg. Saline solution (0.9% NaCl) was used as a vehicle control for ODSH and administered by the same routes and in the same volumes as ODSH.
Human ovarian cancer cell line A2780 was used in the murine xenograft experiments as follows. Approximately 5×10^6 A2780 cells were used per mouse, injected subcutaneously into the right flank in 0.1 mL of 50% Matrigel/50% media. The study was initiated when tumors reached a size of 90-130 mg. 40 mice were used, 10 per treatment regimen. The mice were normal athymic female mice, aged 6-7 weeks, housed in microisolator cages and maintained under pathogen-free conditions. Tumor and body weights were measured three times per week.
Four treatment groups were studied.

clotting time (aPTT) = assay: aPTT assay, clotting time after administration to a subject; type: in vivo; settings: administered to a subject at a (dose equivalent to a) fully-anticoagulating dose of unfractionated heparin; normal about 27 to 35 seconds
Text: In various preferred embodiments, the PF4-interacting heparinoid is substantially nonanticoagulant. Anti-coagulation activity can be determined using assays known in the art, e.g., activated partial thromboplastin time (aPTT), prothrombin time, anti-Xa clotting and amidolytic assays. See, e.g., U.S. Pat. No. 5,668,118, Example IV; Fryer et al., 1997, J. Pharmacol. Exp. Ther. 282: 208-219, at page 209; Rao et al., 2010, Am. J. Physiol. 299:C97-C110, at page C98; United States Pharmacopeial Convention 1995 (for USP anticoagulant assay and amidolytic assay).
In contrast to unfractionated heparin, ODSH is substantially non-anticoagulating: administered to a subject at a dose that is equivalent to a fully-anticoagulating dose of unfractionated heparin, the clotting time measured in an aPTT assay is no greater than 45 seconds, and typically in the upper range of normal, where normal clotting time ranges from about 27 to 35 seconds. By comparison, unfractionated heparin administered to a subject at a fully anticoagulant dose causes time to clot to range from about 60 to about 85 seconds in an aPTT assay. Another measure of ODSH's anticoagulant activity is its anti-Xa activity which can be determined in an assay carried out using plasma treated with Russell viper venom. […] Whether or not a heparinoid is substantially non-anticoagulating can be determined using any of the above assays.

[3] = tested on: metastatic adenocarcinoma of the pancreas; assay: Clinical trial: tumor response and disease status (RECIST 1.1), ECOG performance status; type: in vivo, human
Method: as §1, §2
Blood samples were also tested on day 1 of each treatment cycle for the serum level of CA19-9 (carbohydrate antigen 19-9) a marker used to assess the efficacy of the chemotherapy agents in treating pancreatic cancer. See. e.g., Maeda, 2011, Int. J. Clin. Oncol. 16(5):539-45. Reduction in the serum level of CA19-9 is indicative of chemotherapeutic efficacy against the pancreatic cancer. Tumor response and disease status was measured according to Response Evaluation Criteria in Solid Tumors (RECIST) Guidelines Version 1.1. Eur. J. Cancer, 2009, 45:228-247. A reduction of at least 30% in the sum of the diameters of target lesions (measurable lesions present at screening, up to 2 lesions per involved organ) was scored as a partial response. Patients were scored as having stable disease where the smallest sum of target lesion diameters neither decreased nor increased sufficiently to qualify as a partial response or progressive disease.

[4] = ten patients, ODSH adjunct to gemcitabine/nab-paclitaxel

Question: Which “Effect on patient weight” value ([1]; ODSH adjunct to gemcitabine/nab-paclitaxel) does the source give for “substantially 2-O, 3-O desulfated heparin [ODSH]” here?
Answer: The value was “minimum weight loss or even some weight gain”.

Question: What about the Weight ([1]; individual patients, ODSH adjunctive to gemcitabine and nab-paclitaxel, Cycle 6 Day 1) of the same substance?
Answer: Its Weight is 176 pounds and 133 pounds and 157 pounds.

Question: What about the “Tumor weight, Mean” value ([2]; Day 1) of the same substance?
Answer: Its value is 107.0 mg.

Question: What about the “Tumor weight, Median” value ([2]; Day 1) of the same substance?
Answer: The value was 105.5 mg.

Question: What about the “Tumor weight, individual mice” value ([2]; Day 1, Mouse 1-10) of the same substance?
Answer: The value was 104 mg (2×) and 107 mg and 109 mg and 112 mg and 120 mg and 126 mg and 90 mg and 96 mg and 101 mg.

Question: What about the “Tumor weight, Mean” value ([2]; Day 4) of the same substance?
Answer: Its value is 146.8 mg.

Question: And the “Tumor weight, Median” value ([2]; Day 4)?
Answer: Its value is 134.2 mg.

Question: And the “Tumor weight, individual mice” value ([2]; Day 4, Mouse 1-10)?
Answer: The value was 159 mg and 111 mg and 195 mg and 131 mg and 173 mg and 124 mg and 200 mg and 121 mg and 117 mg and 138 mg.

Question: What about the “Tumor weight, Mean” value ([2]; Day 6) of the same substance?
Answer: The value was 240.3 mg.

Question: What about the “Tumor weight, Median” value ([2]; Day 6) of the same substance?
Answer: The value was 238.2 mg.

Question: What about the “Tumor weight, individual mice” value ([2]; Day 6, Mouse 1-10) of the same substance?
Answer: The value was 309 mg and 215 mg and 347 mg and 264 mg and 235 mg and 139 mg and 282 mg and 241 mg and 171 mg and 201 mg.

Question: What about the “Tumor weight, Mean” value ([2]; Day 8) of the same substance?
Answer: The value was 382.2 mg.

Question: And the “Tumor weight, Median” value ([2]; Day 8)?
Answer: The value was 392.0 mg.

Question: What about the “Tumor weight, individual mice” value ([2]; Day 8, Mouse 1-10) of the same substance?
Answer: The value was 449 mg and 321 mg and 639 mg and 413 mg and 411 mg and 183 mg and 422 mg and 373 mg and 315 mg and 296 mg.

Question: And the “Tumor weight, Mean” value ([2]; Day 11)?
Answer: Its value is 609.6 mg.

Question: And the “Tumor weight, Median” value ([2]; Day 11)?
Answer: The value was 585.4 mg.

Question: What about the “Tumor weight, individual mice” value ([2]; Day 11, Mouse 1-10) of the same substance?
Answer: The value was 816 mg and 366 mg and 910 mg and 653 mg and 536 mg and 349 mg and 811 mg and 635 mg and 491 mg and 529 mg.

Question: And the “Tumor weight, Mean” value ([2]; Day 14)?
Answer: The value was 984.4 mg.

Question: What about the “Tumor weight, Median” value ([2]; Day 14) of the same substance?
Answer: The value was 949.7 mg.

Question: And the “Tumor weight, individual mice” value ([2]; Day 14, Mouse 1-10)?
Answer: Its value is 1,303 mg and 670 mg and 1,499 mg and 1,032 mg and 868 mg and 559 mg and 1,253 mg and 1,084 mg and 815 mg and 762 mg.

Question: What about the “Tumor weight, Mean” value ([2]; Day 18) of the same substance?
Answer: The value was 1,501.7 mg.

Question: And the “Tumor weight, Median” value ([2]; Day 18)?
Answer: Its value is 1,591.5 mg.

Question: And the “Tumor weight, individual mice” value ([2]; Day 18, Mouse 1-10)?
Answer: The value was 1,796 mg and 1,150 mg and 1,836 mg and 1,568 mg and 1,714 mg and 891 mg and 1,869 mg and 1,615 mg and 1,157 mg and 1,422 mg.

Question: And the “Tumor weight, Mean” value ([2]; Day 21)?
Answer: Its value is 2,072.6 mg.

Question: What about the “Tumor weight, Median” value ([2]; Day 21) of the same substance?
Answer: Its value is 1952.5 mg.

Question: And the “Tumor weight, individual mice” value ([2]; Day 21, Mouse 1-10)?
Answer: Its value is 2,692 mg and 1,467 mg and 2,639 mg and 1,852 mg and 1,880 mg and 1,289 mg and 2,560 mg and 2,642 mg and 1,681 mg and 2,025 mg.

Question: What about the “Tumor weight, Mean” value ([2]; Day 25) of the same substance?
Answer: Its value is 2,343.5 mg.

Question: What about the “Tumor weight, Median” value ([2]; Day 25) of the same substance?
Answer: Its value is 2,422.8 mg.

Question: And the “Tumor weight, individual mice” value ([2]; Day 25, Mouse 1-10)?
Answer: Its value is 2,414 mg and 2,464 mg and 2,599 mg and 1,817 mg and 2,423 mg.

Question: What about the “Mouse status printed in place of tumor weight” value ([2]; Day 25, individual mice) of the same substance?
Answer: The value was “TS”.

Question: What about the “Tumor weight, Mean” value ([2]; Day 28) of the same substance?
Answer: Its value is 3,349.0 mg.

Question: And the “Tumor weight, Median” value ([2]; Day 28)?
Answer: The value was 3,251.6 mg.

Question: And the “Tumor weight, individual mice” value ([2]; Day 28, Mouse 1-10)?
Answer: The value was 3,909 mg and 3,784 mg and 3,252 mg and 2,671 mg and 3,129 mg.

Question: And the “Mouse status printed in place of tumor weight” value ([2]; Day 28, individual mice)?
Answer: The value was “TS”.

Question: What about the “Clotting time in aPTT assay” value (clotting time (aPTT)) of the same substance?
Answer: Its value is ≤ 45 s.

Question: And the “ECOG Performance status” value ([3]; 7 evaluable patients, after 8 weeks in the trial (day 1 of cycle 3))?
Answer: The value was “stable or improved”.

Question: What about the “Patients with clinical or radiographic evidence of progressive disease” value ([3]; after three or four full cycles of treatment) of the same substance?
Answer: The value was “no patient”.

Question: And the “Patients with partial response (RECIST)” value [3, 4]?
Answer: Its value is 5 patients.

Question: What about the “Patients with stable disease (RECIST)” value [3, 4] of the same substance?
Answer: The value was 5 patients.

— patent US11229664B2, “Treatment of myelosuppression” (priority 2012, dated 2022)
